One may read the IC50 as the midpoint of a concentration-inhibition curve.

Consider 2 molecules from article PMC9029529, “Distinct Mechanisms of Cytotoxicity in Novel Nitrogenous Heterocycles: Future Directions for a New Anti-Cancer Agent” (Molecules, 2022).

Read-outs that look alike come from different tables or passages of the source.

Series [1] relates to tubulin in MDA-MB-231 cells. Briefly: Tubulin staining and imaging (microtubular network). The settings on record: 48 h; for effect on the microtubular network / tubulin: MDA-MB-231, 15.6 and 31 µM. It is filed as cell-based, human. An excerpt: An established cytotoxic mechanism of action of some nitrogenous heteroaromatic compounds is through the inhibition of tubulin. Normal microtubule function is essential during mitosis for mitotic spindle formation to allow chromatid separation, without which cell replication would cease. In addition, microtubules are critical for maintaining the cytoskeletal integrity of normal cells. Currently used cytotoxic anti-neoplastic classes of drugs such as the taxanes and vinca alkaloids also either inhibit microtubule assembly or disassembly, thus preventing mitosis from occurring. Therefore, we investigated the effects of compounds 8 and 9 on the modulation of microtubule function by assessing their effect on tubulin.
MDA- MB 231 cells were treated with compounds 8 and 9 at two concentrations, 15.6 and 31.25 µM, for 48 h. The cells were stained with tubulin tracker™ Green (Cat #T34075) in HBSS for 30 min and nucleus stain HOECHST33342 (blue) for 5 min. The samples were imaged with Zeiss laser-scanning 780 microscopes.
Following the standard protocol, tubulin and microtubule-associated proteins (MAPs) were developed, accompanied by two cycles of polymerization and depolymerization. MDA-MB231 cells were treated with compounds 8 and 9 at concentrations of 31.25 and 15.6 µM for 48 h. Subsequently, the media was replaced with HBSS, and the MDA-MB231 cells were stained with tubulin tracker™ Green 51(Cat #T34075) for 30 min and HOECHST33342 for 5 min. The Zeiss laser-scanning 780 microscope was used for imaging.

Series [2] relates to MDA-MB-231 cells. Briefly: CellTiter-Glo assay, MDA-MB-231. It is filed as cell-based. Conditions: Homo sapiens, 24 h, read-out: IC50 Breast Cancer MDA-MB-231. As to the method: (§1) To validate the anti-proliferative activity of the imidazole derivatives, the compounds were tested against several cancer cell lines, which included breast cancer (MDA-MB-231, KAIMRC1, and KAIMRC2), colorectal cancer (HCT8), and acute promyelocytic leukemia cells (HL60). KAIMRC1 was isolated from a person with stage II-B breast cancer and is ER+/PR+ and HER2-. In comparison, KAIMRC2 was isolated from a person with metastasized breast cancer and is a triple-negative (ER-/PR-, and HER2-) tumor cell line.
(§2) The CellTiter-Glo assay (Promega™, Madison, WI, USA) was used to evaluate imidazole and oxazolone derivatives cytotoxicity against various cancer cell lines; MCF-10A, HL60, MDA-MB-231, and HCT8, purchased from ATCC, USA, except KAIMRC1 and KAIMRC2, which were isolated, established, and characterized in the core laboratory facility KAIMRC, Riyadh, Saudi Arabia. The cells were seeded in white 96-well plates at a density of 5 × 10^3 cells/well in a 100 μL of growth medium with various concentrations of each compound ranging from 0 to 250 µM. Cells were incubated at 37 °C for 24 h. Plates were equilibrated at RT for 30 min. A quantity of 100 µL of CellTiter-Glo reagent was added to each well and mixed for 2 min on an orbital shaker. Plates were incubated for 10 min at RT before measuring the luminescence using an Envision plate reader (Perkin Elmer). Half-maximal inhibitory concentration IC50 values (μM) were calculated for each imidazole derivative from the dose–response curve. The cytotoxic effect at a concentration <10 µM was considered strongly active and from 11 to 100 µM was considered moderately active, whereas above 100 µM was deemed non-active. Mitoxantrone was utilized as a positive control. Experiments were performed in triplicates.
(In general: ATP-based viability assays read luminescence as a measure of living cells.)

Another series relates to KAIMRC2 cells. Briefly: CellTiter-Glo assay, KAIMRC2. The settings on record: Homo sapiens, 24 h, read-out: IC50 Breast Cancer KAIMRC2. It is filed as cell-based. As to the method:
as §1, §2

The test system of series [3] is MDA-MB-231 cells. Briefly: MTT assay, MDA-MB-231. It is filed as cell-based, human. Conditions: 0 to 250 μM, read-out: IC50 Breast Cancer (MDA-MB-231). As to the method:
(§3) To establish the cytotoxic effect of the nitrogenous derivatives, cells were treated with various concentrations of the drugs ranging from 0 to 250 μM. Following a 24 h incubation period, cell viability was assessed using the MTT assay. Mitoxantrone served as a positive control to evaluate growth inhibition. Since heterogeneity is a hallmark of cancer, the study included cell lines with diverse genomic and proteomic profiles. […] In this regard, further optimization would be required to increase the selective therapeutic potential of compound 9. To determine whether the anti-proliferative effect of the nitrogen derivatives could be translated to other malignancies, we tested the cytotoxic effect on the HCT8 (colorectal cancer) cell line. HCT8 is an adenocarcinoma driven by the Kirsten Rat Sarcoma (KRAS) mutation, unlike MCF-10A [28].
(§4) The MTT assay was utilized to examine the imidazole derivatives’ anti-proliferative activity against MCF-10A, MDA-MB-231, and HCT8 cell lines, purchased from ATCC, USA [47]. Firstly, 5 × 10^3 cells/well were seeded in a 96-well plate in 100 μL of growth medium and were subsequently cultured overnight with various concentrations of each compound ranging from 0 to 250 µM [48]. The media was aspirated, and 50 µL of serum-free media and 50 µL of MTT solution were added to each well. Next, cells were incubated at 37 °C for 3 h, then 150 µL of MTT solvent was added into each well. After that, plates were wrapped in foil and agitated for 15 min on an orbital shaker. Finally, the absorbance was measured within 1 h at OD590 nm. Half-maximal inhibitory concentration IC50 values (μM) were calculated for each compound from the dose–response curve. Experiments were performed in triplicates.

A further series deals with HL60 cells. Description: CellTiter-Glo assay, HL60. Type of series: cell-based, human. The settings on record: read-out: IC50 Leukemia HL60. The procedure:
as §1, §2

The next series deals with HCT8 cells. Briefly: CellTiter-Glo assay, HCT8. It is filed as cell-based. Conditions: Homo sapiens, HCT-8, 24 h, read-out: IC50 Colorectal Cancer HCT8. The procedure: as §1, §2
In the next series the test system is MCF-10A cells. Description: MTT assay, MCF-10A. It is filed as cell-based, human. Conditions: for IC50: Homo sapiens, MCF-10A, 24 h, 0 to 250 μM, read-out: IC50 Non-Malignant Breast Epithelial Cells (MCF-10A). As to the method: as §3, §4

As for `O=C1/C(=C/c2ccccc2)N=C(c2ccccc2)N1Nc1ccc([N+](=O)[O-])cc1[N+](=O)[O-]` [Compound 8], in series [1], the “effect on the microtubular network / tubulin” value is “no effect on tubulin”. The IC50 in the series with MDA-MB-231 cells [2] was determined as 19 µM; in the series with KAIMRC2 cells it was 31.6 µM; in the series with MDA-MB-231 cells [3] (24 h), 4.76 µM; with MDA-MB-231 cells [3] (Homo sapiens, MDA-MB-231, 24 h), 4.7 µM; in the series with HL60 cells (24 h), 9.24 µM; in the series with HL60 cells (Homo sapiens, HL-60, 24 h) it was 9.23 µM. Moreover, the IC50 came to 33.1 µM in the series with HCT8 cells and 30.7 µM in the series with MCF-10A cells. Further, the “IC50 in MCF-10A relative to MDA-MB231 (cytotoxic selectivity)” value in the series on MCF-10A cells is reported as “six-fold higher”.
Consider `COc1cccc(/C=C2\N=C(c3ccccc3)N(Nc3ccc([N+](=O)[O-])cc3[N+](=O)[O-])C2=O)c1` [Compound 9], for which the microtubule inhibition entry in series [1] (MDA-MB-231, 31 µM) is “nearly complete microtubule inhibition”. In series [1], the “effect on the microtubular network / tubulin” value is listed as “interfered with the microtubular network”. Moreover, the IC50 in the series with MDA-MB-231 cells [2] amounted to 39.2 µM; in the series with KAIMRC2 cells it was 27.1 µM; in the series on MDA-MB-231 cells [3] (Homo sapiens, MDA-MB-231, 24 h), 17 µM; with HL60 cells (24 h), 8.63 µM; in the series with HL60 cells (Homo sapiens, HL-60, 24 h), 8.63 µM; with HCT8 cells, 22.1 µM. In addition, the IC50 in the series with MCF-10A cells stood at 9.52 µM.
